Test results: publication PMC10380377 (International Journal of Molecular Sciences, 2023)
Positions of bridges follow the written chain, without caps; N, C: chain ends. Residues, ends and D or L forms follow the SMILES beside them.

Assays:
human Kv11.1 [1] = target: T1, human Kv11.1 (Homo sapiens, UniProt Q12809)
Kv10.1 potassium channel = assay type: cell-based, human
human Kv1.6 = target: T2, human Kv1.6 (Homo sapiens, UniProt P17658); assay: cell-based; assay type: cell-based
T2 construct: expressed in transfected cells; host or cells: Xenopus laevis oocytes injected with cRNA (pSGEM clone, T7 transcription)

human Kv10.1 = target: T3, human Kv10.1 (Homo sapiens, UniProt O95259); assay: cell-based
T3 construct: expressed in transfected cells; host or cells: Xenopus laevis oocytes injected with cRNA (pSGEM clone, T7 transcription)
T3 sequence (O95259 1-989): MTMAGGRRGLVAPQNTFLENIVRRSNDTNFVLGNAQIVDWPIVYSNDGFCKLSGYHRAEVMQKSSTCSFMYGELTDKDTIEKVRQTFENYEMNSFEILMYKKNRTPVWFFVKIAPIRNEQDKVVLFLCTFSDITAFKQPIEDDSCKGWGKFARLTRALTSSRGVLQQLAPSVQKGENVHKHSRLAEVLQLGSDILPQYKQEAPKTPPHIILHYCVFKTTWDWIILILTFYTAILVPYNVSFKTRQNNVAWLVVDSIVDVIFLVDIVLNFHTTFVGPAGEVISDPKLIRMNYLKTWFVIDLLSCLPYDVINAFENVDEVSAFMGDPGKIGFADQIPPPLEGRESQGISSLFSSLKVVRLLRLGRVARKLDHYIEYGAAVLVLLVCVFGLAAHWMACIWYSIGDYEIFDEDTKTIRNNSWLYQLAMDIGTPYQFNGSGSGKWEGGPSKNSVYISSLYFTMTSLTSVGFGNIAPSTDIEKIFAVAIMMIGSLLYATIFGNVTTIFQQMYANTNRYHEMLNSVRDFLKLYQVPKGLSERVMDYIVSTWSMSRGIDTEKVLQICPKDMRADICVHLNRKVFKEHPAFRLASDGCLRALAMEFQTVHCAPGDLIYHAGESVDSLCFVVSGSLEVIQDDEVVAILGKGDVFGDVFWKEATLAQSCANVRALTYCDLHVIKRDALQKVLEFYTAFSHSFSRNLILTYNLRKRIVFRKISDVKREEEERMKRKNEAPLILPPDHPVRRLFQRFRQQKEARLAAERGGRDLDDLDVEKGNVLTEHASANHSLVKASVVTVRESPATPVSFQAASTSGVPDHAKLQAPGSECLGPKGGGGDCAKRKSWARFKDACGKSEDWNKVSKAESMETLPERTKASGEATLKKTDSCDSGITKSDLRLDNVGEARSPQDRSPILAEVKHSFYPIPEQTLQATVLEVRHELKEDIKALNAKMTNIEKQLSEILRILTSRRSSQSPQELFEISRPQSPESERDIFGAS

human Kv11.1 [2] = target: T1, human Kv11.1; assay: in vitro; conditions: pH 7.2

T2 sequence (P17658 whole entry): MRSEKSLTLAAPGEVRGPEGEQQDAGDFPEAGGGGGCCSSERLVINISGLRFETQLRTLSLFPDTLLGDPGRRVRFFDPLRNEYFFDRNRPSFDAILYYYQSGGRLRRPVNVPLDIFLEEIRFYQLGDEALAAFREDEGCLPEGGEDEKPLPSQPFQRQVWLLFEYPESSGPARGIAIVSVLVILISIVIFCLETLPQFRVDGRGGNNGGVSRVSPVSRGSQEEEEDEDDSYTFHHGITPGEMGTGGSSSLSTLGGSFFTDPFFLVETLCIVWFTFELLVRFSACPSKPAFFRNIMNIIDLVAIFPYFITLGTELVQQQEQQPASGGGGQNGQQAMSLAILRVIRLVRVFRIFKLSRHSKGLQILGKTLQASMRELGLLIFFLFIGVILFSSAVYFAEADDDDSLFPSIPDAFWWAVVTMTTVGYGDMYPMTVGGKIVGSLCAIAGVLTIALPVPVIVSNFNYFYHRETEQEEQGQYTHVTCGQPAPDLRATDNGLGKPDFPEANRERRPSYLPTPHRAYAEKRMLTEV
T1 sequence (Q12809 whole entry): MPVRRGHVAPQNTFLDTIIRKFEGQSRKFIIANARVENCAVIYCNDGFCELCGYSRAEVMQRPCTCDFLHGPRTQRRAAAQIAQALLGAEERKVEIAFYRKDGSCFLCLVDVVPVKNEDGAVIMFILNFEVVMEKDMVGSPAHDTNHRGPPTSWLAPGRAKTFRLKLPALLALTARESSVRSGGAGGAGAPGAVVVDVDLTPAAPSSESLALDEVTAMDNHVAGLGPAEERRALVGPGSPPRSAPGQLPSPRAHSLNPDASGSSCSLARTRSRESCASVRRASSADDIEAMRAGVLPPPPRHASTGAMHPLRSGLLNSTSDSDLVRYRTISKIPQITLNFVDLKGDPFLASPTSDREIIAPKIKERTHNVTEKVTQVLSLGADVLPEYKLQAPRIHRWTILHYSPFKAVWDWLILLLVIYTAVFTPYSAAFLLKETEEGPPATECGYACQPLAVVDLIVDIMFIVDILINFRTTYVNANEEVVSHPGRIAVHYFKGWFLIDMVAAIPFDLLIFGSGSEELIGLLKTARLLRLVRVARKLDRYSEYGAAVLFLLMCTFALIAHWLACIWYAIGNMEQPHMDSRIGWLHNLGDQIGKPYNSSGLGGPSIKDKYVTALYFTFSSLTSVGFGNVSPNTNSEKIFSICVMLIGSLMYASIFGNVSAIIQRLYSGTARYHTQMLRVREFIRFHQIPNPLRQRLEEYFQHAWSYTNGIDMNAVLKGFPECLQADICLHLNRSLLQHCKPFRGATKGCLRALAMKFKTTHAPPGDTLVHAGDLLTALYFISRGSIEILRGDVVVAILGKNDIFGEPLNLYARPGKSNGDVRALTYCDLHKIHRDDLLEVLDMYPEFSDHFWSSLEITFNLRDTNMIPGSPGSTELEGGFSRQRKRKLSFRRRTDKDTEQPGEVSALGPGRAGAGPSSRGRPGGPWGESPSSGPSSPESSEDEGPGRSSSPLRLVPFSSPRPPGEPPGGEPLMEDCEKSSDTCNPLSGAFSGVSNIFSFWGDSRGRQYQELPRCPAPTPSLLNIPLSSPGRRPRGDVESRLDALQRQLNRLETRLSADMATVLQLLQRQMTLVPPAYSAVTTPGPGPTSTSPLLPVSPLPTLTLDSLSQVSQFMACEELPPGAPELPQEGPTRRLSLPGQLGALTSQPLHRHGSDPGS

CC[C@H](C)[C@H](NC(=O)[C@@H]1CSSC[C@@H]2NC(=O)[C@H](C(C)C)NC(=O)[C@H](CC(C)C)NC(=O)CNC(=O)[C@H](CC(C)C)NC(=O)CNC(=O)[C@@H]3CCCN3C(=O)[C@H](CC(C)C)NC(=O)CNC(=O)[C@@H]3CSSC[C@H](NC(=O)[C@H](C)NC(=O)CNC(=O)[C@H](CCCNC(=N)N)NC(=O)[C@H](CSSC[C@H](NC(=O)CN)C(=O)NCC(=O)N[C@@H](C(C)C)C(=O)N[C@@H](CC(=O)O)C(=O)NCC(=O)N[C@@H](CCC(N)=O)C(=O)N[C@@H](Cc4ccccc4)C(=O)N3)NC2=O)C(=O)N[C@@H](Cc2ccccc2)C(=O)N[C@@H](CC(C)C)C(=O)N[C@@H](C(C)C)C(=O)N1)C(=O)N[C@@H](Cc1ccc(O)cc1)C(=O)N[C@H](C(=O)N1CCC[C@H]1C(=O)O)[C@@H](C)CC [κO-SrVIA] (H-GCGVDGQFCGLPGLGLVCCRGACFLVCIYIP-OH; disulfide 2-19, 9-23, 18-27)
Hill coefficient (human Kv11.1 [1]): 2.85 ± 0.46
inhibitory activity on the Kv10.1 channel (Kv10.1 potassium channel): the only fraction that had inhibitory activity on the Kv10.1 channel
Hill coefficient (human Kv1.6): 3.35 ± 0.44
effect on Kv1.6 (human Kv1.6): no effect
inhibition at 4 µM (human Kv1.6): < 50%
Hill coefficient (human Kv10.1): 1.86 ± 0.25
inhibition at 0.4 µM (human Kv10.1; read-out: inhibitory activity): 10%
inhibition at 0.4 µM (human Kv11.1 [2]): 10%
